Experiments:
[1] = tested on: TRZAWR Wheat, Winter, cv Riband; assay: Preemergence herbicidal evaluation, TRZAWR; assay type: in vivo, Triticum aestivum; parameters: scale not given here; conditions: preemergence
How it was run: (§1)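 Seeds mixed with potting soil were planted on about one inch of soil in cups, then sprayed with the test compound in aqueous acetone at roughly 0.013 to 0.800 kg per hectare. Plants were kept under standard greenhouse care and injury was rated four to five weeks after treatment.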

ORYSAT Rice, Tebonnet = assay: Postemergence herbicidal evaluation, ORYSAT; assay type: in vivo, Oryza sativa, (L.); parameters: scale not given here; conditions: postemergence spray, rated about two-three weeks after treatment
How it was run: (§2)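 Postemergence spray, 40 psi nozzle, on ~2-week seedlings. Carrier: acetone/water 80/20, 1.0% methylated seed oil; dose ~0.006–0.400 kg/ha. Scored visually at 2–3 weeks.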

ECHOG Barnyardgrass = assay: Postemergence herbicidal evaluation, ECHOG; assay type: in vivo, Echinochloa crus-galli, (L.) Beau; parameters: scale not given here; conditions: postemergence spray, rated about two-three weeks after treatment
How it was run: as §2

GALAP Galium [2] = assay: Postemergence herbicidal evaluation, GALAP; assay type: in vivo, Galium aparine; parameters: scale not given here; conditions: postemergence spray, rated about two-three weeks after treatment
How it was run: as §2

AMBEL Ragweed, Common = assay: Preemergence herbicidal evaluation, AMBEL; assay type: in vivo, Ambrosia artemisifolia, L.; parameters: scale not given here; conditions: preemergence
How it was run: as §1

[3] = tested on: IPOHE Morningglory, Ivyleaf; assay: Postemergence herbicidal evaluation, IPOHE; assay type: in vivo, Ipomoea hederacea, (L.) Jacq.; parameters: scale not given here; conditions: postemergence spray, rated about two-three weeks after treatment
How it was run: as §2

CASOB Sicklepod = assay: Preemergence herbicidal evaluation, CASOB; assay type: in vivo, Cassia obtusifolia, L.; parameters: scale not given here; conditions: preemergence
How it was run: as §1

GALAP Galium [4] = assay: Preemergence herbicidal evaluation, GALAP; assay type: in vivo, Galium aparine; parameters: scale not given here; conditions: preemergence
How it was run: as §1

[5] = tested on: CHEAL Lambsquarters, Common; assay: Preemergence herbicidal evaluation, CHEAL; assay type: in vivo, Chenopodium album, L.; parameters: scale not given here; conditions: preemergence
How it was run: as §1

GLXMAW Soybean, Williams = assay: Preemergence herbicidal evaluation, GLXMAW; assay type: in vivo, Glycine max, (L.) Merr. cv Williams; parameters: scale not given here; conditions: preemergence
How it was run: as §1

[6] = tested on: CHEAL Lambsquarters, Common; assay: Postemergence herbicidal evaluation, CHEAL; assay type: in vivo, Chenopodium album, L.; parameters: scale not given here; conditions: postemergence spray, rated about two-three weeks after treatment
How it was run: as §2

SETVI Foxtail, Green = assay: Preemergence herbicidal evaluation, SETVI; assay type: in vivo, Setaria viridis, (L.) Beau; parameters: scale not given here; conditions: preemergence
How it was run: as §1

Compound: COc1ccc(C)cc1-n1nnc2cc(F)c(-n3c(=O)cc(C(F)(F)F)n(C)c3=O)cc21 [Example 18, 3-[5-fluoro-1-(2-methoxy-5-methylphenyl)-1H-1,2,3-benzotriazol-6-yl]-1-methyl-6-(trifluoromethyl)-2,4(1H,3H)-pyrimidinedione]
- TRZAWR herbicidal rating ([1]; rate 0.016 kg/ha): 2.0
- TRZAWR herbicidal rating ([1]; rate 0.032 kg/ha): 3.0
- TRZAWR herbicidal rating ([1]; rate 0.062 kg/ha): 6.0
- TRZAWR herbicidal rating ([1]; rate 0.125 kg/ha): 7.0
- Postemergence herbicidal rating ORYSAT (ORYSAT Rice, Tebonnet; 0.008 kg/ha): 3.5
- Postemergence herbicidal rating ORYSAT (ORYSAT Rice, Tebonnet; 0.016 kg/ha): 4.0
- Postemergence herbicidal rating ORYSAT (ORYSAT Rice, Tebonnet; 0.032 kg/ha): 5.5
- Postemergence herbicidal rating ORYSAT (ORYSAT Rice, Tebonnet; 0.062 kg/ha): 5.5
- Postemergence herbicidal rating ECHCG (ECHOG Barnyardgrass; 0.008 kg/ha): 0.0
- Postemergence herbicidal rating ECHCG (ECHOG Barnyardgrass; 0.016 kg/ha): 2.0
- Postemergence herbicidal rating ECHCG (ECHOG Barnyardgrass; 0.032 kg/ha): 2.0
- Postemergence herbicidal rating ECHCG (ECHOG Barnyardgrass; 0.062 kg/ha): 4.0
- Postemergence herbicidal rating GALAP (GALAP Galium [2]; 0.008 kg/ha): 1.0
- Postemergence herbicidal rating GALAP (GALAP Galium [2]; 0.016 kg/ha): 3.0
- Postemergence herbicidal rating GALAP (GALAP Galium [2]; 0.032 kg/ha): 5.0
- Postemergence herbicidal rating GALAP (GALAP Galium [2]; 0.062 kg/ha): 5.0
- AMBEL herbicidal rating (AMBEL Ragweed, Common; rate 0.016 kg/ha): 4.0
- AMBEL herbicidal rating (AMBEL Ragweed, Common; rate 0.032 kg/ha): 6.0
- AMBEL herbicidal rating (AMBEL Ragweed, Common; rate 0.062 kg/ha): 9.0
- AMBEL herbicidal rating (AMBEL Ragweed, Common; rate 0.125 kg/ha): 8.0
- Postemergence herbicidal rating IPOHE ([3]; 0.008 kg/ha): 9.0
- Postemergence herbicidal rating IPOHE ([3]; 0.016 kg/ha): 9.0
- Postemergence herbicidal rating IPOHE ([3]; 0.032 kg/ha): 9.0
- Postemergence herbicidal rating IPOHE ([3]; 0.062 kg/ha): 9.0
- CASOB herbicidal rating (CASOB Sicklepod; rate 0.016 kg/ha): 2.5
- CASOB herbicidal rating (CASOB Sicklepod; rate 0.032 kg/ha): 0.0
- CASOB herbicidal rating (CASOB Sicklepod; rate 0.062 kg/ha): 0.5
- CASOB herbicidal rating (CASOB Sicklepod; rate 0.125 kg/ha): 5.0
- GALAP herbicidal rating (GALAP Galium [4]; rate 0.032 kg/ha): 1.0
- GALAP herbicidal rating (GALAP Galium [4]; rate 0.062 kg/ha): 5.0
- GALAP herbicidal rating (GALAP Galium [4]; rate 0.125 kg/ha): 9.0
- CHEAL herbicidal rating ([5]; rate 0.016 kg/ha): 9.0
- CHEAL herbicidal rating ([5]; rate 0.032 kg/ha): 9.0
- CHEAL herbicidal rating ([5]; rate 0.062 kg/ha): 9.0
- CHEAL herbicidal rating ([5]; rate 0.125 kg/ha): 9.0
- GLXMAW herbicidal rating (GLXMAW Soybean, Williams; rate 0.016 kg/ha): 3.0
- GLXMAW herbicidal rating (GLXMAW Soybean, Williams; rate 0.032 kg/ha): 4.5
- GLXMAW herbicidal rating (GLXMAW Soybean, Williams; rate 0.062 kg/ha): 7.5
- GLXMAW herbicidal rating (GLXMAW Soybean, Williams; rate 0.125 kg/ha): 9.0
- Postemergence herbicidal rating CHEAL ([6]; 0.008 kg/ha): 1.0
- Postemergence herbicidal rating CHEAL ([6]; 0.016 kg/ha): 7.0
- Postemergence herbicidal rating CHEAL ([6]; 0.032 kg/ha): 9.0
- Postemergence herbicidal rating CHEAL ([6]; 0.062 kg/ha): 9.0
- SETVI herbicidal rating (SETVI Foxtail, Green; rate 0.016 kg/ha): 9.0
- SETVI herbicidal rating (SETVI Foxtail, Green; rate 0.032 kg/ha): 9.0
- SETVI herbicidal rating (SETVI Foxtail, Green; rate 0.062 kg/ha): 9.0
- SETVI herbicidal rating (SETVI Foxtail, Green; rate 0.125 kg/ha): 9.0
- melting point: 175 to 181 °C

From US20020111274A1, “1-alkyl-3-[1-(substituted phenyl) benzotriazol-6-yl] uracils” (BASF Aktiengesellschaft, priority 2000, published 2002)
